Patent publication US20250313563A1, “GLYCOGEN SYNTHASE KINASE 3 INHIBITORS AND USES THEREOF” (The Broad Institute, Inc., priority 2022, published 2025)
Like-named read-outs stand apart in the source and are kept apart here.

Key:
[1] = target: GSK3α (GST-full length GSK3α) (Homo sapiens (Human), UniProt P49840); assay: GSK3α TR-FRET kinase assay; format: biochemical
Outline: (§1)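 Compound was preincubated 30 min with 1 nM GST-GSK3 enzyme. Reaction ran 100 min at ambient temperature in Tris pH 7.5/MgCl2 with 200 nM biotinylated pS645-glycogen synthase 631-650 peptide and ATP (4 μM GSK3α, 2 μM GSK3b, or 1 mM). The EDTA-stopped reaction was read by TR-FRET (Tb-anti-pSer641/streptavidin-d2), and IC50s were fitted.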

[2] = target: GSK3b (GST-full length GSK3b) (Homo sapiens (Human), UniProt P49841); assay: GSK3b TR-FRET kinase assay; format: biochemical
GSK3b (GST-full length GSK3b), sequence (P49841 whole entry): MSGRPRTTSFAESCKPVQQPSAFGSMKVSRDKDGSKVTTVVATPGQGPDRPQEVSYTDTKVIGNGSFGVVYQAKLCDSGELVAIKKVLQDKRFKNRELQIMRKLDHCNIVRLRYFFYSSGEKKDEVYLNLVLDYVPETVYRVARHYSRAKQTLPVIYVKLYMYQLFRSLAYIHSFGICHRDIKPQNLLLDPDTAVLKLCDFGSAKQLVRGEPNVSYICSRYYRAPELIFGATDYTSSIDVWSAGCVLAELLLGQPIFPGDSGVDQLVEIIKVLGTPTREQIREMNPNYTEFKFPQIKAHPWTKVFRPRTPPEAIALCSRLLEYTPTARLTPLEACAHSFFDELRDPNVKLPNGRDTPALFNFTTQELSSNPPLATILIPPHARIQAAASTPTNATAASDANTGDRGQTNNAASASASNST
Outline: as §1

[3] = 1 nM GSK3α, 4 μM ATP, 30 minute preincubation, Table 16, read-out: GSK3-A TR-FRET BIOCHEMICAL (TR-FRET)
[4] = 1 nM GSK3b, 2 μM ATP, 30 minute preincubation, Table 16, read-out: GSK3-B TR-FRET BIOCHEMICAL (TR-FRET)
[5] = 1 nM GSK3α, 4 μM ATP, 30 minute preincubation, Table 16, read-out: GSK3-A TR-FRET BIOCHEMICAL (TR-FRET), IC50
[6] = 1 nM GSK3b, 2 μM ATP, 30 minute preincubation, Table 16, read-out: GSK3-B TR-FRET BIOCHEMICAL (TR-FRET), IC50
[7] = read-out: GSK3-A (TR-FRET 1 mM ATP), GMean, IC50, 1 mM ATP, geometric mean
[8] = read-out: GSK3-B (TR-FRET 1 mM ATP), GMean, IC50, 1 mM ATP, geometric mean
[9] = 1 nM GSK3α, 4 μM ATP, 30 minute preincubation, geometric mean, read-out: GSK3-A TR-FRET BIOCHEMICAL (TR-FRET), GMean, IC50
[10] = 1 nM GSK3b, 2 μM ATP, 30 minute preincubation, geometric mean, read-out: GSK3-B TR-FRET BIOCHEMICAL (TR-FRET), GMean, IC50
[11] = 1 nM GSK3α, 4 μM ATP, 30 minute preincubation, read-out: GSK3-A TR-FRET BIOCHEMICAL (TR-FRET), IC50
[12] = 1 nM GSK3b, 2 μM ATP, 30 minute preincubation, read-out: GSK3-B TR-FRET BIOCHEMICAL (TR-FRET), IC50

GSK3α (GST-full length GSK3α), sequence (P49840 whole entry): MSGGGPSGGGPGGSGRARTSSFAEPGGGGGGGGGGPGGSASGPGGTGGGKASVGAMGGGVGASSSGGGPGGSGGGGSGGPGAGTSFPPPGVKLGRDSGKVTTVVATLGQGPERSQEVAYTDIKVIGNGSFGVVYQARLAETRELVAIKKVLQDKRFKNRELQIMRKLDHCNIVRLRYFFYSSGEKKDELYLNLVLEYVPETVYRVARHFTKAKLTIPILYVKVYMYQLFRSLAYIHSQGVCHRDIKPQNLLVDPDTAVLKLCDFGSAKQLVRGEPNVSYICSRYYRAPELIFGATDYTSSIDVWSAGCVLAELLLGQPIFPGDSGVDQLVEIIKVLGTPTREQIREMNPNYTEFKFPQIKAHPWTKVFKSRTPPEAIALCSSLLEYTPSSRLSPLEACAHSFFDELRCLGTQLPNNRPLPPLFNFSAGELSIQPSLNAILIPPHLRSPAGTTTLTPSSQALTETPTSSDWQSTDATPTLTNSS

| Structure (SMILES) | IC50 [1, 3] | IC50 [2, 4] | IC50 [1, 9] | IC50 [2, 10] | further results |
| --- | --- | --- | --- | --- | --- |
| Cc1ncc(S(=O)(=O)N2CCC3(CC2)C2=C(CC(C)(C)CC2=O)Nc2n[nH]cc23)o1 [Compound 947611] | ≤ 100 nM | ≤ 100 nM |  |  | IC50 ([1]; GSK3-A (TR-FRET 1 mM ATP), GMean, IC50, 1 mM ATP, geometric mean): 100 to 1000 nM; IC50 ([2]; GSK3-B (TR-FRET 1 mM ATP), GMean, IC50, 1 mM ATP, geometric mean): 100 to 1000 nM |
| CCC1(c2cccc(-c3cc(C)ncc3F)c2)C2=C(CC(C)(C)CC2=O)Nc2n[nH]cc21 (stereo not drawn) [Compound 927339] |  |  |  |  | IC50 [1, 5]: 1000 to 5000 nM; IC50 [2, 6]: > 5000 nM |
| CC[C@]1(c2cccc(-c3ccncc3F)c2)C2=C(CC(C)(C)CC2=O)Nc2n[nH]cc21 [Compound 943519] | 100 to 1000 nM | 1000 to 5000 nM |  |  |  |
| CCC1(c2cccc(N(C)C(=O)c3cnn(C)c3)c2)C2=C(CC(C)(C)CC2=O)Nc2n[nH]cc21 (stereo not drawn) [Compound 913311] |  |  |  |  | IC50 [1, 5]: ≤ 100 nM; IC50 [1, 7]: > 5000 nM; IC50 [2, 6]: ≤ 100 nM; IC50 [2, 8]: > 5000 nM |
| CCC1(c2cccc(C(F)(F)F)c2)C2=C(CCN(c3cnn(C)c3C)C2=O)Nc2n[nH]cc21 (stereo not drawn) [Compound 952262] |  |  |  |  | IC50 [1, 5]: > 5000 nM; IC50 [2, 6]: > 5000 nM |
| CCC1(c2cccc(-c3ccnc4c3CCC4)c2)C2=C(CC(C)(C)CC2=O)Nc2n[nH]cc21 (stereo not drawn) [Compound 943534] | ≤ 100 nM | ≤ 100 nM |  |  |  |
| CC[C@@]1(c2cccc(S(=O)(=O)C(C)C)c2)C2=C(CC(C)(C)NC2=O)Nc2n[nH]c(C(F)(F)F)c21 [Compound 948423] |  |  | ≤ 100 nM | 100 to 1000 nM |  |
| CCC1(c2cccc(-c3cncn3C)c2)C2=C(CC(C)(C)NC2=O)Nc2n[nH]c(C(F)(F)F)c21 (stereo not drawn) [Compound 948180] |  |  | ≤ 100 nM | ≤ 100 nM |  |
| CCC1(c2cccc(N3CCOCC3)c2)C2=C(CC(C)(C)CC2=O)Nc2n[nH]c(C)c21 (stereo not drawn) [Compound 889582] |  |  |  |  | IC50 [1, 5]: 100 to 1000 nM; IC50 [2, 6]: 1000 to 5000 nM |
| CCC1(c2cccc(-c3cncn3C)c2)C2=C(CC(C)(C)NC2=O)Nc2n[nH]cc21 (stereo not drawn) [Compound 947806] |  |  | ≤ 100 nM | ≤ 100 nM |  |
| CCC1(c2cccc(N(C)c3ccnc(C(F)(F)F)c3)c2)C2=C(CC(C)(C)CC2=O)Nc2n[nH]cc21 (stereo not drawn) [Compound 913254] |  |  |  |  | IC50 [1, 5]: ≤ 100 nM; IC50 [2, 6]: ≤ 100 nM |
| CC[C@@]1(c2ccccc2)C2=C(C[C@]3(CCNC3=O)CC2=O)Nc2n[nH]cc21 [Compound 950164] | > 5000 nM | > 5000 nM |  |  |  |
| CC[C@@]1(c2cccc(-c3cnn(-c4cccnc4)c3)c2)C2=C(CC(C)(C)NC2=O)Nc2n[nH]cc21 [Compound 949515] |  |  |  |  | IC50 [1, 5]: > 5000 nM; IC50 [2, 6]: > 5000 nM |
| CCC1(c2cccc(-c3c(F)cncc3OC)c2)C2=C(Nc3n[nH]cc31)C(F)C(C)(C)CC2=O (stereo not drawn) [Compound 948548, 4-ethyl-8-fluoro-4-(3-(3-fluoro-5-methoxypyridin-4-yl)phenyl)-7,7-dimethyl-2,4,6,7,8,9-hexahydro-SH-pyrazolo[3,4-b]quinolin-5-one] | ≤ 100 nM | 100 to 1000 nM |  |  |  |
| Cc1ccc(C)c(C(=O)N2CC3(C2)CC2(CO3)C3=C(CC(C)(C)CC3=O)Nc3n[nH]cc32)c1 (stereo not drawn) [Compound 947285] |  |  |  |  | IC50 [1, 11]: ≤ 100 nM; IC50 [2, 12]: 100 to 1000 nM |
| CCC1(c2cccc(Nc3ncccn3)c2)C2=C(CC(C)(C)CC2=O)Nc2n[nH]cc21 (stereo not drawn) [Compound 913334] |  |  |  |  | IC50 [1, 5]: ≤ 100 nM; IC50 [2, 6]: 100 to 1000 nM |
| CC(C)(C)Cc1[nH]nc2c1[C@@](C)(c1cccc(S(=O)(=O)C(F)(F)F)c1)C1=C(CC(C)(C)CC1=O)N2 [Compound 126396] |  |  |  |  | IC50 [1, 7]: > 5000 nM; IC50 [2, 8]: > 5000 nM |
| CC[C@]1(c2cccc(-c3ccnc(C)c3)c2)C2=C(C[C@]3(CCOC3)NC2=O)Nc2n[nH]cc21 [Compound 947406] | ≤ 100 nM | 100 to 1000 nM |  |  | IC50 [1, 7]: 100 to 1000 nM; IC50 [2, 8]: > 5000 nM |
| CCC1(c2cccc(N(C)c3ncccn3)c2)C2=C(CC(C)(C)NC2=O)Nc2n[nH]c(C)c21 (stereo not drawn) [Compound 949182] |  |  | ≤ 100 nM | ≤ 100 nM |  |
| CCC1(c2cccc(-c3ccnc(C)c3)c2)C2=C(CC(C)(C)N(C)C2=O)Nc2n[nH]cc21 (stereo not drawn) [Compound 949009] |  |  | > 5000 nM | > 5000 nM |  |

| Structure (SMILES) | IC50 [1, 3] | IC50 [2, 4] | IC50 [1, 9] | IC50 [2, 10] | further results |
| --- | --- | --- | --- | --- | --- |
| Cn1ccc(S(=O)(=O)N2CCCC3(CC2)C2=C(CC(C)(C)CC2=O)Nc2n[nH]cc23)n1 (stereo not drawn) [Compound 917138] | ≤ 100 nM | ≤ 100 nM |  |  |  |
| CCC1(c2cccc(-c3ccnn3C)c2)C2=C(CC3(CCCOC3)NC2=O)Nc2n[nH]cc21 (stereo not drawn) [Compound 948366] |  |  | 1000 to 5000 nM | > 5000 nM |  |
| CC[C@@]1(c2cccc(-c3ccnc4cc(Cl)c(C)cc34)c2)C2=C(CC(C)(C)NC2=O)Nc2n[nH]cc21 [Compound 948645] |  |  | 100 to 1000 nM | > 5000 nM |  |
| Cc1ncc(S(=O)(=O)N2CCC3(CC2)C2=C(CC(C)(C)CC2=O)Nc2n[nH]cc23)s1 [Compound 947899] | ≤ 100 nM | ≤ 100 nM |  |  |  |
| O=C1CC2(CCCCC2)CC2=C1C1(CCOCC1)c1c[nH]nc1N2 [Compound 893307] | ≤ 100 nM | 100 to 1000 nM |  |  |  |
| CCC1(c2cccc(C(F)(F)F)c2)C2=C(CC(c3ccccc3)NC2=O)Nc2n[nH]cc21 (stereo not drawn) [Compound 945363] |  |  |  |  | IC50 [1, 11]: 1000 to 5000 nM; IC50 [2, 12]: > 5000 nM |
| Cc1cc(S(=O)(=O)N2CCC3(CC2)C2=C(CC(C)(C)CC2=O)Nc2n[nH]cc23)ccc1Cl [Compound 947475] | ≤ 100 nM | ≤ 100 nM |  |  |  |
| CCC1(c2cccc(-c3ccnn3C)c2)C2=C(Nc3n[nH]cc31)C(F)C(C)(C)CC2=O (stereo not drawn) [Compound 957509] | 100 to 1000 nM | > 5000 nM |  |  |  |
| CC[C@]1(c2ccccc2)C2=C(CC(C)(C)CC2=O)Nc2n[nH]c(Br)c21 [Compound 792341] |  |  | 100 to 1000 nM | 100 to 1000 nM |  |
| CC[C@@]1(c2cccc(C(F)(F)F)c2)C2=C(CCN(C)C2=O)Nc2n[nH]cc21 [Compound 917282] |  |  |  |  | IC50 [1, 11]: ≤ 100 nM; IC50 [2, 12]: 100 to 1000 nM |
| CCC1(c2cccc(-c3cnn(C)c3)c2)C2=C(CC(C)CC2=O)Nc2n[nH]cc21 (stereo not drawn) [Compound 823721] |  |  | ≤ 100 nM | 100 to 1000 nM | IC50 [1, 7]: 100 to 1000 nM; IC50 [2, 8]: > 5000 nM |
| CCC1(c2cccc(C(F)(F)F)c2)C2=C(CC(C)(C)CC2=O)Nc2n[nH]c(Br)c21 (stereo not drawn) [Compound 810466] |  |  | ≤ 100 nM | ≤ 100 nM | IC50 [1, 7]: ≤ 100 nM; IC50 [2, 8]: 100 to 1000 nM |
| C[C@@H]1C[C@H](C)C(=O)C2=C1Nc1n[nH]cc1C21CCOCC1 [Compound 893316] |  |  |  |  | IC50 [1, 5]: ≤ 100 nM; IC50 [2, 6]: 100 to 1000 nM |
| C[C@H]1CCC[C@@]2(C1)C1=C(CC(C)(C)CC1=O)Nc1n[nH]cc12 [Compound 893319] | 100 to 1000 nM | 100 to 1000 nM |  |  |  |
| CCC1(COCc2ccccc2)C2=C(CC(C)(C)CC2=O)Nc2n[nH]cc21 (stereo not drawn) [Compound 874313] |  |  |  |  | IC50 [1, 5]: 1000 to 5000 nM; IC50 [2, 6]: 1000 to 5000 nM |
| CCC1(c2cccc(-c3c(C)nn(C)c3C)c2)C2=C(CC(C)(C)NC2=O)Nc2n[nH]c(C(F)(F)F)c21 (stereo not drawn) [Compound 947568] |  |  | ≤ 100 nM | ≤ 100 nM |  |
| CCC1(c2cccc(-c3cn(C)nc3C)c2)C2=C(CC(C)(C)N(C)C2=O)Nc2n[nH]cc21 (stereo not drawn) [Compound 948304] |  |  | ≤ 100 nM | ≤ 100 nM |  |
| CC1(C)CC2=C(C(=O)[C@@H]1F)C1(CCOCC1)c1c[nH]nc1N2 [Compound 883835] | 100 to 1000 nM | 100 to 1000 nM |  |  |  |
| CCCS(=O)(=O)c1cccc(C2(CC)C3=C(CC(C)(C)CC3=O)Nc3n[nH]cc32)c1 (stereo not drawn) [Compound 929447] |  |  |  |  | IC50 [1, 7]: ≤ 100 nM; IC50 [2, 8]: 100 to 1000 nM |
| COc1ccc(S(=O)(=O)N2CCC3(CC2)C2=C(CC(C)(C)CC2=O)Nc2n[nH]cc23)c(C)c1C [Compound 945662] | ≤ 100 nM | 100 to 1000 nM |  |  |  |
